The values below come from article PMC9887599, “Synthesis, Optical Properties, and Antiproliferative Evaluation of NBD-Triterpene Fluorescent Probes” (Journal of Natural Products, 2022).

In data set [1] the test system is B16-F10 murine melanoma. Description: MTT cell-viability assay, B16-F10. The format is cell-based. The following applies: Mus musculus, 72 h, untreated control cells as 100% viability. The protocol:
(§1) The cytotoxic effects of 12 NBD-Aa-triterpene conjugates (1–12) were tested on three different cancer cell lines as a representation of cancers from different tissues and organs (B16-F10 murine melanoma, HT-29 human colon adenocarcinoma, and HepG2 human hepatocyte carcinoma). Cell viability was determined by MTT colorimetric analysis, with increasing concentration levels of each compound (0–200 μg/mL) and incubation for 72 h. The MTT assay was based on the metabolic reduction of 3-(4,5-dimethylthiazol-2-yl)-2,5-diphenyltetrazolium bromide (MTT) to a violet-colored compound (formazan), with a maximum absorbance at 570 nm. Cell viability was proportional to the amount of formazan and was expressed as the percentage of viable treated cells relative to untreated control cells. The concentration at which the derivatives halved the number of viable cells in the three cancer lines (IC50) was determined. […] These NBD conjugates of BO or BM also had higher IC50 values than their precursors (BO or BM), even in NBD conjugates with the shortest-chain ω-amino acid linker (6AHA) (Table 2). Due to these high IC50 values, all of these NBD-conjugated compounds were discarded for further cytometric studies.
(§2) The effect of the synthesized compounds on the viability of tumor cells was assessed using the MTT assay, based on the ability of living cells to metabolically reduce 3-(4,5-dimethylthiazole)-2,5-diphenyltetrazole bromide, rendering formazan, a colored compound with a maximum absorbance of 570 nm. To study the cytotoxic effects of the compounds in the three cancer cell lines, the different lines were seeded in 96-well plates at a cell density per well of 5 × 10^3 for B16-F10, 6 × 10^3 for HT-29, and 15 × 10^3 for HepG2. After seeding, the plates were grown for 24 h and subsequently treated in triplicate with different compounds at different concentrations (0–200 μg/mL) for 72 h. After this time, the cells were stained by adding […] of MTT (0.5 mg/mL) per well and incubated for 1 h. Subsequently, the cells were washed with phosphate-buffered saline (PBS), and formazan was resuspended in 100 μL of DMSO per well. Cell viability was measured by absorbance at 550 nm in an ELISA plate reader (Tecan Sunrise MR20–301, TECAN, Austria).
(§3) For this, Sigmaplot 12.5 software was used, and all quantitative data were expressed as means ± standard deviation (SD). All data shown are representative of at least two independent experiments performed in triplicate.
(In general: Tetrazolium dyes change colour on reduction, which living cells bring about.)

Data set [2] has as its system HT-29 human colon adenocarcinoma. Description: MTT cell-viability assay, HT-29. The following applies: 72 h, untreated control cells as 100% viability. The format is cell-based. The protocol: as §1, §2, §3
The test system of data set [3] is HepG2 human hepatocyte carcinoma. Description: MTT cell-viability assay, HepG2. The format is cell-based. The following applies: 72 h, untreated control cells as 100% viability. The protocol:
as §1, §2, §3

The subject of data set [4] is B16-F10, HT-29, and HepG2. Description: MTT cell-viability assay, summary over the three cancer cell lines. The following applies: 72 h, stated as holding in most cases, read-out: IC50 concentrations over the three cancer cell lines, in most cases. The format is cell-based, mouse, human. The protocol:
as §1, §2, §3

Data set [5] is described as follows: Absorption and fluorescence spectroscopy (photophysical data). The format is physicochemical. The following applies: DMSO, 25 °C; for τ (half-life time of fluorescence): 485 nm pulsed LED; for Φ (fluorescence quantum yield): Coumarin 6 as standard; for (λem)max: excitation at 480 nm.

A value given as a limit tells only on which side of the number the result lay.

As to `CC1(C)CC[C@]2(C(=O)OCc3ccccc3)CC[C@]3(C)C(=CC[C@@H]4[C@@]5(C)C[C@@H](O)[C@H](O)C(C)(C)[C@@H]5CC[C@]43C)[C@@H]2C1` [BM, 28-benzyl maslinate, reference compound], the IC50 in data set [1] is 19 ± 0.2 µM; in data set [2] it was 15.3 ± 0.5 µM; in data set [3] it was 17 µM.

In the case of `CC1(C)CC[C@]2(C(=O)OCc3ccccc3)CC[C@]3(C)C(=CC[C@@H]4[C@@]5(C)CC[C@H](O)C(C)(C)[C@@H]5CC[C@]43C)[C@@H]2C1` [BO, 28-benzyl oleanolate, reference compound], the IC50 was determined as 52.2 ± 0.9 µM in data set [1], 67.1 ± 3.2 µM in data set [2] and 38.7 ± 1.7 µM in data set [3].

Regarding `CC1(C)CC[C@]2(C(=O)OCc3ccccc3)CC[C@]3(C)C(=CC[C@@H]4[C@@]5(C)CC[C@H](OC(=O)CCCCCNc6ccc([N+](=O)[O-])c7nonc67)C(C)(C)[C@@H]5CC[C@]43C)[C@@H]2C1` [Compound 3, Benzyl 3β-((6-((7-Nitrobenzo[C][1,2,5]oxadiazol-4-yl)amino)hexanoyl)oxy)olean-12-en-28-oate], in data set [1], the IC50 was determined as 76.6 ± 3.7 µM. In data set [2], the IC50 was 63.3 ± 2.4 µM. The molecule also displayed an IC50 in data set [3] of 74.3 ± 0.7 µM. Besides, in data set [4], the IC50 is over 80 µM. In data set [5], the “(λabs)max” value is recorded as 480 nm, the “ε (molar extinction coefficient)” value came out at 4035 M^–1 cm^–1, the “τ (half-life time of fluorescence)” value is recorded as 7.761 ns and the “Φ (fluorescence quantum yield)” value is given as 0.67. Moreover, the “(λem)max” value in data set [5] turned out to be 545 nm.

Consider `CC1(C)CC[C@]2(C(=O)OCc3ccccc3)CC[C@]3(C)C(=CC[C@@H]4[C@@]5(C)C[C@@H](OC(=O)CCCCCNc6ccc([N+](=O)[O-])c7nonc67)[C@H](O)C(C)(C)[C@@H]5CC[C@]43C)[C@@H]2C1` [Compound 4, Benzyl 3β-Hydroxy-2α-((6-((7-nitrobenzo[c][1,2,5]oxadiazol-4-yl)amino)hexanoyl)oxy)olean-12-en-28-oate], for which the IC50 in data set [1] is 96.4 ± 0.9 µM. This molecule also had an IC50 in data set [2] of 121 ± 4 µM. In data set [3], this molecule yielded an IC50 of 91.2 ± 2.3 µM. Also, in data set [4], the IC50 was over 80 µM. For the same molecule, in data set [5], the “(λabs)max” value amounted to 480 nm, the “ε (molar extinction coefficient)” value was found to be 1338 M^–1 cm^–1, the “τ (half-life time of fluorescence)” value was 7.650 ns and the “Φ (fluorescence quantum yield)” value stood at 0.72. In data set [5], the “(λem)max” value was 545 nm.

In data set [1], `CC1(C)CC[C@]2(C(=O)O)CC[C@]3(C)C(=CC[C@@H]4[C@@]5(C)CC[C@H](OC(=O)CCCCCCCNc6ccc([N+](=O)[O-])c7nonc67)C(C)(C)[C@@H]5CC[C@]43C)[C@@H]2C1` [Compound 5, 3β-((8-((7-Nitrobenzo[c][1,2,5]oxadiazol-4-yl)amino)octanoyl)oxy)olean-12-en-28-oic Acid] yielded an IC50 of 137 ± 2 µM. The molecule further returned an IC50 in data set [2] of 105 ± 1.2 µM. Further, in data set [3], the IC50 came to 95.7 ± 3.4 µM. The IC50 in data set [4] was over 50 µM. Besides, in data set [5], the “(λabs)max” value was 480 nm, the “ε (molar extinction coefficient)” value amounted to 1144 M^–1 cm^–1, the “τ (half-life time of fluorescence)” value was 7.654 ns and the “Φ (fluorescence quantum yield)” value is recorded as 0.73. Moreover, the “(λem)max” value in data set [5] came to 545 nm.

Consider `CC1(C)CC[C@]2(C(=O)O)CC[C@]3(C)C(=CC[C@@H]4[C@@]5(C)C[C@@H](O)[C@H](O)C(C)(C)[C@@H]5CC[C@]43C)[C@@H]2C1` [MA, 2α,3β-dihydroxyolean-12-en-28-oic acid, reference compound], for which the values for the IC50 in data set [1], in data set [2] and in data set [3] were 36.2 ± 2.5 µM, 32.2 ± 3.8 µM and 99.2 ± 5.5 µM, respectively.

`CC1(C)CC[C@]2(C(=O)O)CC[C@]3(C)C(=CC[C@@H]4[C@@]5(C)CC[C@H](O)C(C)(C)[C@@H]5CC[C@]43C)[C@@H]2C1` [OA, 3β-hydroxyolean-12-en-28-oic acid, reference compound]: the IC50 in data set [1] amounted to 106 ± 3.7 µM; in data set [2] it was 429.9 ± 0.7 µM; in data set [3], 211.8 ± 0.5 µM.
